The values that follow come from patent publication US20240201173A1, “Enamel Repair Visualization and Quantification” (Colgate-Palmolive Company, priority 2022, published 2024).

The nature of assay [1]: Knoop microhardness repair of acid-etched bovine enamel blocks after treatment and remineralization. The settings on record: 1% citric acid etch 10 min, 40 microliters for ten minutes at room temperature, Remineralization Solution overnight at 37° C. The procedure: Bovine enamel blocks are obtained from sound bovine incisors without defects. The labial surface of the bovine teeth is cut to provide enamel specimens of about 3×3×2 mm in size. The enamel layer is about 1 mm thick and the dentin left in the specimen is about 1 mm thick.
Etched enamel samples are prepared by treatment with 1% aqueous citric acid (pH 3.6) for 10 minutes, followed by rinsing with deionized water. Three bovine enamel blocks are prepared, one for the test solution, one for a positive control solution, and one for a negative control solution.
Etched bovine enamel samples are treated with 40 microliters of the polyelectrolyte solution A, with sodium fluoride solution, or with water, for ten minutes at room temperature. […]
Knoop Hardness (KHN) is a measure of hardness of a material calculated by measuring the indentation produced by a diamond tip that is pressed onto the surface of a sample. Using a calibrated microscope, the area of the impression can be determined, and from the area of the indentation (D) in […], and the applied load (F) in kilograms force, the Knoop Hardness is calculated as: KHN=14.229(F/D^2). […]
KHN is determined using Knoop microhardness tester. […] A value for Percentage of Hardness Repair (% HR) is calculated according to the following formula: […]

Assay [2] is described as follows: Single-block enamel repair evaluation, solution samples (Keyence microscope step height, light microscopy, SEM). Also noted: species or system bovine. The procedure: The left half of the block (“sound”) is covered using an acid-resistant nail polish, which is then allowed to air dry. The right half of the block (“damaged” and “repaired”) is then treated with 1% citric acid (pH 3.6) for ten minutes to etch the surface. After the treatment, the surface of the block is rinsed with deionized water. The top right corner of the block (“damaged”) is then covered with the same acid-resistant nail polish and air dried. The test formulation is then applied to the bottom right corner of the block (“repaired”), for example, for a ten-minute treatment, followed by rinsing with deionized water. Following the treatment, the enamel blocks are immersed in a Remineralization Solution (0.2205 g/L CaCl2·2H2O, 0.1225 g/L KH2PO4, 9.6915 g/L KCl and 4.766 g/L HEPEs buffer, pH adjusted to 7 with NaOH) overnight at 37° C., and the process repeated for 2-4 days (the blocks immersed daily in fresh remineralization solution). Following this, the blocks are removed, rinsed with deionized water and air dried. The nail polish covers are then removed using acetone solvent, and the surface of the enamel blocks is visualized, for example, by light microscopy, confocal laser scanning microscopy, scanning probe microscopy, or scanning electron microscopy.
A Keyence microscope is used to capture the surface morphology and to measure the step height of the treated samples. A Phenom ProX Desktop scanning electron microscope is used to observe the repaired enamel crystals. Bovine enable blocks are treated with either water, the sodium fluoride solution, or the 10 mg/mL ePL+0.06 mg/mL malic acid solution (Solution A above).

`[F-].[Na+]` [NaF Control, sodium fluoride]: the “% HR (Percentage of Hardness Repair)” value is recorded as 41.0% in assay [1] and “did not reach half of original hardness levels” in assay [1] (listed as sodium fluoride). Besides, in assay [2] (1% citric acid etch 10 min, ten-minute treatment, remineralization repeated 2-4 days), the “% Repair (Step height)” value was found to be 65.3%. In addition, the “enamel surface gaps, scanning electron microscopy” value in assay [2] (gaps from acid etching) was “some healing”. For the same compound, the “surface elevation, 3-D Keyence photomicrographs (FIG. 3)” value in assay [2] (height vs sound enamel side) is given as “do not restore the enamel to the original height”. Moreover, the “surface morphology of repaired side, light microscopy (FIG. 2)” value in assay [2] (repaired vs damaged side of same block) was “a clear interface between “damaged” and “repaired” sides is observed”.
